Source: patent US12134611B2, “Compounds and compositions for treating conditions associated with NLRP activity” (Novartis AG, priority 2018, dated 2024)

molecular target: T1, hNLRP3 (Homo sapiens, UniProt Q96P20); test: IL-1β production in PMA-differentiated THP-1 cells stimulated with gramicidin (hTHP-1 assay); type: cell-based; conditions: read-out: NLRP3 Antagonist, hNLRP3 (THP-1, IL-1b) Normalized: GeoMean IC50
T1 construct: THP-1 cells were purchased from the American Type Culture Collection; host or cells: THP-1 cells, PMA-differentiated, stimulated with gramicidin
Procedure: Procedure 1: IL-1β Production in PMA-Differentiated THP-1 Cells Stimulated with Gramicidin.
THP-1 cells were purchased from the American Type Culture Collection and sub-cultured according to instructions from the supplier. […] Prior to the experiment, compounds were dissolved in dimethyl sulfoxide (DMSO) to generate a 30 mM stock. […] DMSO was backfilled in the plate to achieve a final DMSO assay concentration of 0.37%. The plate was then sealed and stored at room temperature until required.
THP-1 cells were treated with PMA (Phorbol 12-myristate 13-acetate) (20 ng/ml) for 16-18 hours. On the day of the experiment the media was removed and adherent cells were detached with trypsin for 5 minutes.
Procedure 2: IL-1β Production in PMA-Differentiated THP-1 Cells Stimulated with Gramicidin.
THP-1 cells were purchased from the American Type Culture Collection and sub-cultured according to instructions from the supplier. […] Prior to the experiment THP-1 were treated with PMA (Phorbol 12-myristate 13-acetate) (20 ng/ml) for 16-18 hours. Compounds were dissolved in dimethyl sulfoxide (DMSO) to generate a 30 mM stock. On the day of the experiment the media was removed and adherent cells were detached with trypsin for 5 minutes. […] Final DMSO concentration was at 0.37%. Cells were incubated with compounds for 1 hour and then stimulated with gramicidin (5 μM) (Enzo) for 2 hours. Plates were then centrifuged at 340 g for 5 min. Cell free supernatant (40 μL) was collected using a 96-channel PlateMaster (Gilson) and the production of IL-1β was evaluated by HTRF (cisbio).
1. Experimental procedure
1.2 Compound Preparation • Prepare the 3-fold serial dilution of the compounds with DMSO in a 384-well LDV Microplate using TECAN EVO system to generate the compound source plate with 10 concentrations. Top concentration is 30 mM. FIG. 5 depicts the layout of the microplate.
FIG. 5 depicts the layout of the plates: HC: 100 μM CRID3 (MCC950)+5 μM gramicidin LC: 5 μM Gramicidin.
1.5 IL-1β Detection • 1) Homogenize the 5× diluent #5 with a vortex and add 1 volume of stock solution in 4 volumes of distilled water. • 2) Thaw 20× stock solution of anti-IL1β-Cryptate-antibody and anti-IL1β XL-antibody. […] 2. Data Analysis: • 1.

T1 sequence (Q96P20 whole entry): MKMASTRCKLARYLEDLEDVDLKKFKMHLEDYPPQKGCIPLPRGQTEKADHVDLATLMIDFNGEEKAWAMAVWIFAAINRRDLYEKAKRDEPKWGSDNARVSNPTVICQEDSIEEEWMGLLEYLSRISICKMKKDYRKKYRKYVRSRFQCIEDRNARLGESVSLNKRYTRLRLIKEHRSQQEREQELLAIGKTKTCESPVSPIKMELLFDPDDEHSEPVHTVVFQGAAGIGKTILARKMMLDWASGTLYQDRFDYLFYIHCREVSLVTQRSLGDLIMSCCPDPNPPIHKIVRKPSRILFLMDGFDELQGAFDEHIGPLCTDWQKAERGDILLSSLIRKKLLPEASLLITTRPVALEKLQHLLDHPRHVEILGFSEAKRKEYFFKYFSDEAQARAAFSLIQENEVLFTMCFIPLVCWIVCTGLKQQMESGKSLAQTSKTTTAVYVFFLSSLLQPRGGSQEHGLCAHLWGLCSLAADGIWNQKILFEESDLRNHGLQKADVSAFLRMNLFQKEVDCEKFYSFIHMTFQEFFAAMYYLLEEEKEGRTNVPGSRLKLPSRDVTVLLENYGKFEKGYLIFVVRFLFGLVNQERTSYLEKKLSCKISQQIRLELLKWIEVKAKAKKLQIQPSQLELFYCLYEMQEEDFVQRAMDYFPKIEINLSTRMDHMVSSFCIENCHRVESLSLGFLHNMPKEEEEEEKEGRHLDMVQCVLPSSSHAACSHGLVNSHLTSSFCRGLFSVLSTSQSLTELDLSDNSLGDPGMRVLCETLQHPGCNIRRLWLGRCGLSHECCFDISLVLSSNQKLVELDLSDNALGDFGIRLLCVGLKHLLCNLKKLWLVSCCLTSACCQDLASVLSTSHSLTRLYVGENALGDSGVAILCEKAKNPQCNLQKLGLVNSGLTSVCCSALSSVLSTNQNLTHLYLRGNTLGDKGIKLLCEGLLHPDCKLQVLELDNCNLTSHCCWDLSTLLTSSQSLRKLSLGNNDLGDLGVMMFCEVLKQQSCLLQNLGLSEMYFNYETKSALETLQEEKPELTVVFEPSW

Structure (SMILES) | IC50
O=C(N=S1(=O)NCc2ccccc21)Nc1c2c(cc3c1CCC3)CCC2 (single isomer, unassigned) [Compound 130a, 1-(1,2,3,5,6,7-hexahydro-s-indacen-4-yl)-3-[(1S or 1R)-1-oxo-2,3-dihydro-1-^λ-6,2-benzothiazol-1-ylidene]urea] | > 30 µM
O=C1CCS(=O)(=NC(=O)Nc2c3c(cc4c2CCC4)CCC3)N1 (single isomer, unassigned) [Compound 131a, (R or S)-1-(1,2,3,5,6,7-hexahydro-s-indacen-4-yl)-3-(1-oxido-3-oxo-1l6-isothiazolidin-1-ylidene)urea] | 1 to 5 µM
O=C(N=S1(=O)CC2(COC2)C(=O)N1)Nc1c2c(cc3c1CCC3)CCC2 (single isomer, unassigned) [Compound 132a, (S or R)-1-(1,2,3,5,6,7-hexahydro-s-indaccn-4-yl)-3-(6-oxido-8-oxo-2-oxa-6l6-thia-7-azaspiro[3.4]octan-6-ylidene)urea] | 1 to 5 µM
O=C(N=S1(=O)CC2(COC2)C(=O)N1)Nc1c2c(cc3c1CCC3)CCC2 (single isomer, unassigned) [Compound 132b, (R or S)-1-(1,2,3,5,6,7-hexahydro-s-indacen-4-yl)-3-(6-oxido-8-oxo-2-oxa-6l6-thia-7-azaspiro[3.4]octan-6-ylidene)urea] | 5 to 30 µM
CN(C)Cc1ccc2c(c1)S(=O)(=NC(=O)Nc1c3c(cc4c1CCC4)CCC3)NC2 (single isomer, unassigned) [Compound 133a, (R or S)-1-(6-((dimethylamino)methyl)-1-oxido-2,3-dihydro-1l4-benzo[d]isothiazol-1-ylidene)-3-(1,2,3,5,6,7-hexahydro-s-indacen-4-yl)urea] | 5 to 30 µM
CN(C)Cc1ccc2c(c1)S(=O)(=NC(=O)Nc1c3c(cc4c1CCC4)CCC3)NC2 (single isomer, unassigned) [Compound 133b, (S or R)-1-(6-((dimethylamino)methyl)-1-oxido-2,3-dihydro-1l4-benzo[d]isothiazol-1-ylidene)-3-(1,2,3,5,6,7-hexahydro-s-indacen-4-yl)urea] | > 30 µM
COC(=O)c1ccc2c(c1)S(=O)(=NC(=O)Nc1c3c(cc4c1CCC4)CCC3)NC2=O (single isomer, unassigned) [Compound 134a, methyl (R or S)-1-(((1,2,3,5,6,7-hexahydro-s-indacen-4-yl)carbamoyl)imino)-3-oxo-2,3-dihydro-1H-1l4-benzo[d]isothiazole-6-carboxylate 1-oxide] | > 30 µM
COC(=O)c1ccc2c(c1)S(=O)(=NC(=O)Nc1c3c(cc4c1CCC4)CCC3)NC2=O (single isomer, unassigned) [Compound 134b, methyl (S or R)-1-(((1,2,3,5,6,7-hexahydro-s-indacen-4-yl)carbamoyl)imino)-3-oxo-2,3-dihydro-1H-1l4-benzo[d]isothiazole-6-carboxylate 1-oxide] | 5 to 30 µM
CC(C)(O)c1ccc2c(c1)S(=O)(=NC(=O)Nc1c3c(nc4c1CCC4)CCC3)NC2=O (single isomer, unassigned) [Compound 136, (S or R)-1-(1,2,3,5,6,7-hexahydrodicyclopenta[b,e]pyridin-8-yl)-3-(6-(2-hydroxypropan-2-yl)-1-oxido-3-oxo-2,3-dihydro-1l4-benzo[d]isothiazol-1-ylidene)urea] | 0.2 to 1 µM
CC(C)(O)c1ccc2c(c1)S(=O)(=NC(=O)Nc1c3c(nc4c1CCC4(C)C)CCC3)NC2=O (single isomer, unassigned) [Compound 137, (S or R)-1-(3,3-dimethyl-1,2,3,5,6,7-hexahydrodicyclopenta[b,e]pyridin-8-yl)-3-(6-(2-hydroxypropan-2-yl)-1-oxido-3-oxo-2,3-dihydro-1l4-benzo[d]isothiazol-1-ylidene)urea] | 0.2 to 1 µM
